Reference: ChEMBL document CHEMBL4334517, “Flavipesines A and B and Asperchalasines E-H: Cytochalasans and Merocytochalasans from Aspergillus flavipes” (J Nat Prod, 2019)

The molecules below were run against Isocitrate dehydrogenase [NADP] cytoplasmic (Homo sapiens, UniProt O75874, R132H) (assay: Inhibition of IDH1 R132H mutant (unknown origin) assessed as reduction in NADPH consumption using alpha-KG as substrate incubated for 5 mins followed by substrate addition and measured every 1 min).
Sequence of Isocitrate dehydrogenase [NADP] cytoplasmic (O75874 2-414 R132H limits assumed): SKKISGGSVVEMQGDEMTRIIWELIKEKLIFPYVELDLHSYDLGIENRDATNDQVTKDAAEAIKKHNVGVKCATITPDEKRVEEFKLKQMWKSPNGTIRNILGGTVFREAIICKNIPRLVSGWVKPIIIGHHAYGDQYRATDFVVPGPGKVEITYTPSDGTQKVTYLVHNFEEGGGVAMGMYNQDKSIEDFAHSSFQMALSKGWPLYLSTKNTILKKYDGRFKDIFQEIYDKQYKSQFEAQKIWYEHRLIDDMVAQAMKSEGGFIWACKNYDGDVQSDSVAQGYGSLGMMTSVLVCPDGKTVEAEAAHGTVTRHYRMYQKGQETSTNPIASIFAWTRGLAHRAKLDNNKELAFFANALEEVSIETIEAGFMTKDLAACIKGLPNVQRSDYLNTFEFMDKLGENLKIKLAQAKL

Q: Cc1ccccc1C(C(=O)NC1CCCCC1)N(C(=O)Cn1ccnc1C)c1cccc(F)c1 (stereo not given) was tested. Which IC50 did it give?
A: 0.2 µM

Q: For CC(C)C[C@@H]1NC(=O)[C@]23[C@H]1[C@H](C)C(CO)=C[C@@H]2[C@@H]1[C@@]2(CCC[C@@]1(C)O)CC[C@]3(O)O2, which IC50 is on record?
A: > 50 µM

Q: With CC1=C[C@@H]2/C=C(\C)CC[C@@H](O)C(=O)[C@H]3[C@H](C(=O)[C@]24C(=O)N[C@@H](CC(C)C)[C@@H]4[C@@H]1C)[C@@H]1O[C@H]3c2c(O)c(O)c(O)c(C)c21 as the molecule, how does the IC50 read?
A: > 50 µM

Q: CC1=C[C@@H]2/C=C(\C)CC[C@@H](O)C(=O)[C@H]3[C@H](C(=O)[C@]24C(=O)N[C@@H](CC(C)C)[C@@H]4[C@@H]1C)[C@@H]1O[C@H]3c2c(C)c(O)c(O)c(O)c21 was tested. Which IC50 did it give?
A: > 50 µM

Q: For C=C1CC[C@@H](O)[C@]23CC[C@](O)(O2)[C@@]24C(=O)N[C@@H](CC(C)C)[C@@H]2[C@H](C)C(C)=C[C@@H]4[C@@H]13, which IC50 is on record?
A: > 50 µM

Q: With CC1=C[C@@H]2/C=C(\C)CC[C@@H](O)C(=O)[C@H]3[C@H](C(=O)[C@]24C(=O)N[C@@H](CC(C)C)[C@@H]4[C@@H]1C)[C@H]1O[C@@H]3c2c(O)c(O)c(O)c(C)c21 as the molecule, how does the IC50 read?
A: > 50 µM

Q: How did the IC50 turn out when COc1c(O)c(C)c2c(c1O)[C@H]1O[C@@H]2[C@H]2C(=O)[C@@]34C(=O)N[C@@H](CC(C)C)[C@@H]3[C@H](C)C(C)=C[C@@H]4/C=C(\C)CC[C@@H](O)C(=O)[C@@H]21 was run?
A: 13.3 µM

Q: With COc1c(O)c(C)c2c(c1O)[C@@H]1O[C@H]2[C@H]2C(=O)[C@H](O)CC/C(C)=C/[C@H]3C=C(C)[C@@H](C)[C@H]4[C@H](CC(C)C)NC(=O)[C@]43C(=O)[C@@H]21 as the molecule, how does the IC50 read?
A: 17.3 µM

Q: For COc1c(O)c(C)c2c(c1O)[C@@H]1O[C@H]2[C@H]2C(=O)[C@@]34C(=O)N[C@@H](CC(C)C)[C@@H]3[C@H](C)C(C)=C[C@@H]4/C=C(\C)CC[C@@H](O)C(=O)[C@@H]21, which IC50 is on record?
A: 43.6 µM

Q: COc1c(O)c(C)c2c(c1O)[C@H]1O[C@@H]2[C@H]2C(=O)[C@H](O)CC/C(C)=C/[C@H]3C=C(C)[C@@H](C)[C@H]4[C@H](CC(C)C)NC(=O)[C@]43C(=O)[C@@H]21 was tested. Which IC50 did it give?
A: 11.7 µM
